# From ChEMBL document CHEMBL1201861, “Genomics of Drug Sensitity in Cancer screening data, Wellcome Trust Sanger Institute”
# Key:
# Test in all cases: cells
# BB30-HNC = format: functional, cell-based, Homo sapiens; conditions: Homo sapiens, BB30-HNC;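 also: growth inhibition of the cultured cell line, read out by a cell viability assay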
# Description: SANGER: Inhibition of human BB30-HNC cell growth in a cell viability assay.
# COLO-680N = format: functional, cell-based, Homo sapiens; conditions: Homo sapiens, COLO-680N;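 also: cell viability assay used to measure inhibition of COLO-680N cell growth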
# Description: SANGER: Inhibition of human COLO-680N cell growth in a cell viability assay.
# A204 = format: functional, cell-based, Homo sapiens; conditions: Homo sapiens, A204;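 also: growth inhibition of human A204 cells, read out with a cell viability assay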
# Description: SANGER: Inhibition of human A204 cell growth in a cell viability assay.
# DJM-1 = format: functional, cell-based, Homo sapiens; conditions: Homo sapiens, DJM-1;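 also: growth inhibition of human DJM-1 cells, read out by a cell viability assay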
# Description: SANGER: Inhibition of human DJM-1 cell growth in a cell viability assay.
# SK-PN-DW = format: functional, cell-based; conditions: Homo sapiens;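 also: growth inhibition measured with a viability assay on these cells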
# Description: SANGER: Inhibition of human SK-PN-DW cell growth in a cell viability assay.
# J82 = format: functional, cell-based; conditions: Homo sapiens;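 also: growth inhibition of J82 cells, read out with a cell viability assay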
# Description: SANGER: Inhibition of human J82 cell growth in a cell viability assay.
# BPH-1 = format: functional, cell-based, Homo sapiens; conditions: Homo sapiens, BPH-1;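 also: cell viability assay measuring growth inhibition of human BPH-1 cells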
# Description: SANGER: Inhibition of human BPH-1 cell growth in a cell viability assay.
# NCI-H1623 = format: functional, cell-based, Homo sapiens; conditions: Homo sapiens, NCI-H1623;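 also: cell viability assay used as the read-out for growth inhibition of NCI-H1623 cells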
# Description: SANGER: Inhibition of human NCI-H1623 cell growth in a cell viability assay.
# HT-29 = format: functional, cell-based, Homo sapiens; conditions: Homo sapiens, HT-29;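 also: growth inhibition of human HT-29 cells, read out by a cell viability assay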
# Description: SANGER: Inhibition of human HT-29 cell growth in a cell viability assay.
# Calu-6 = format: functional, cell-based, Homo sapiens; conditions: Homo sapiens, Calu-6;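 also: growth of human Calu-6 cells, read out by a cell viability assay, IC50 marking inhibition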
# Description: SANGER: Inhibition of human Calu-6 cell growth in a cell viability assay.
# RPMI-8866 = format: functional, cell-based; conditions: Homo sapiens
# Description: SANGER: Inhibition of human RPMI-8866 cell growth in a cell viability assay.
# LN-405 = format: functional, cell-based, Homo sapiens; conditions: Homo sapiens, LN-405
# Description: SANGER: Inhibition of human LN-405 cell growth in a cell viability assay.
# GAK = format: functional, cell-based, Homo sapiens; conditions: Homo sapiens, GAK;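 also: cell growth inhibition read out by a cell viability assay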
# Description: SANGER: Inhibition of human GAK cell growth in a cell viability assay.
# NCI-H2122 = format: functional, cell-based, Homo sapiens; conditions: Homo sapiens, NCI-H2122;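 also: growth inhibition of the cells, read out with a cell viability assay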
# Description: SANGER: Inhibition of human NCI-H2122 cell growth in a cell viability assay.
# TE-9 = format: functional, cell-based, Homo sapiens; conditions: Homo sapiens, TE-9;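 also: cell growth inhibition, measured with a cell viability readout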
# Description: SANGER: Inhibition of human TE-9 cell growth in a cell viability assay.
# LAMA-84 = format: functional, cell-based; conditions: Homo sapiens;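 also: growth inhibition of LAMA-84 cells, read out with a cell viability assay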
# Description: SANGER: Inhibition of human LAMA-84 cell growth in a cell viability assay.
# 769-P = format: functional, cell-based, Homo sapiens; conditions: Homo sapiens, 769-P
# Description: SANGER: Inhibition of human 769-P cell growth in a cell viability assay.
# BV-173 = format: functional, cell-based; conditions: Homo sapiens
# Description: SANGER: Inhibition of human BV-173 cell growth in a cell viability assay.
# GT3TKB = format: functional, cell-based, Homo sapiens; conditions: Homo sapiens, GT3TKB;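 also: growth inhibition of the cell line, read out with a cell viability assay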
# Description: SANGER: Inhibition of human GT3TKB cell growth in a cell viability assay.
# TK-10 = format: functional, cell-based, Homo sapiens; conditions: Homo sapiens, TK-10;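 also: growth inhibition of TK-10 cells, read out in a cell viability assay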
# Description: SANGER: Inhibition of human TK10 cell growth in a cell viability assay.
# VM-CUB-1 = format: functional, cell-based; conditions: Homo sapiens;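 also: cell viability assay measuring growth inhibition of the human VM-CUB-1 cell line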
# Description: SANGER: Inhibition of human VM-CUB-1 cell growth in a cell viability assay.
# SK-MEL-28 = format: functional, cell-based; conditions: Homo sapiens;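 also: growth inhibition of human SK-MEL-28 cells, read out with a cell viability assay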
# Description: SANGER: Inhibition of human SK-MEL-28 cell growth in a cell viability assay.
# SAOS-2 = format: functional, cell-based, Homo sapiens; conditions: Homo sapiens, SAOS-2;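 also: growth inhibition of human Saos-2 cells determined by a cell viability assay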
# Description: SANGER: Inhibition of human Saos-2 cell growth in a cell viability assay.
# BHT-101 = format: functional, cell-based, Homo sapiens; conditions: Homo sapiens, BHT-101
# Description: SANGER: Inhibition of human BHT-101 cell growth in a cell viability assay.
# D-502MG = format: functional, cell-based, Homo sapiens; conditions: Homo sapiens, D-502MG
# Description: SANGER: Inhibition of human D-502MG cell growth in a cell viability assay.
# PANC-03-27 = format: functional, cell-based, Homo sapiens; conditions: Homo sapiens, PANC-03-27
# Description: SANGER: Inhibition of human PANC-03-27 cell growth in a cell viability assay.
# COLO-792 = format: functional, cell-based, Homo sapiens; conditions: Homo sapiens, COLO-792
# Description: SANGER: Inhibition of human COLO-792 cell growth in a cell viability assay.
# PC-14 = format: functional, cell-based, Homo sapiens; conditions: Homo sapiens, PC-14;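 also: cell viability assay measuring inhibition of PC-14 cell growth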
# Description: SANGER: Inhibition of human PC-14 cell growth in a cell viability assay.
# HD-MY-Z = format: functional, cell-based, Homo sapiens; conditions: Homo sapiens, HD-MY-Z;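 also: growth inhibition of HD-MY-Z cells, read out with a cell viability assay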
# Description: SANGER: Inhibition of human HD-MY-Z cell growth in a cell viability assay.
# NB13 = format: functional, cell-based, Homo sapiens; conditions: Homo sapiens, NB13;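 also: cell viability readout measuring growth inhibition of human NB13 cells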
# Description: SANGER: Inhibition of human NB13 cell growth in a cell viability assay.
# MHH-ES-1 = format: functional, cell-based, Homo sapiens; conditions: Homo sapiens, MHH-ES-1;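 also: cell growth inhibition measured by a cell viability assay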
# Description: SANGER: Inhibition of human MHH-ES-1 cell growth in a cell viability assay.
# LAN-6 = format: functional, cell-based, Homo sapiens; conditions: Homo sapiens, LAN-6;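 also: growth inhibition of LAN-6 cells, determined with a cell viability assay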
# Description: SANGER: Inhibition of human LAN-6 cell growth in a cell viability assay.
# CP50-MEL-B = format: functional, cell-based, Homo sapiens; conditions: Homo sapiens, CP50-MEL-B;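 also: growth inhibition of the human cell line, measured with a cell viability read-out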
# Description: SANGER: Inhibition of human CP50-MEL-B cell growth in a cell viability assay.
# CAL-12T = format: functional, cell-based, Homo sapiens; conditions: Homo sapiens, CAL-12T;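 also: growth inhibition of human CAL-12T cells, read out with a cell viability assay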
# Description: SANGER: Inhibition of human CAL-12T cell growth in a cell viability assay.
# LXF-289 cell line = format: functional, cell-based, Homo sapiens; conditions: Homo sapiens, LXF-289
# Description: SANGER: Inhibition of human LXF-289 cell growth in a cell viability assay.
# KYSE-180 = format: functional, cell-based, Homo sapiens; conditions: Homo sapiens, KYSE-180;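 also: growth inhibition of KYSE-180 cells, read out with a cell viability assay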
# Description: SANGER: Inhibition of human KYSE-180 cell growth in a cell viability assay.
# A-427 = format: functional, cell-based, Homo sapiens; conditions: Homo sapiens, A-427;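 also: growth inhibition of human A-427 cells, read out by a cell viability assay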
# Description: SANGER: Inhibition of human A427 cell growth in a cell viability assay.
# J-RT3-T3-5 = format: functional, cell-based; conditions: Homo sapiens;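 also: cell viability assay measuring growth inhibition of human J-RT3-T3-5 cells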
# Description: SANGER: Inhibition of human J-RT3-T3-5 cell growth in a cell viability assay.
# NCI-H28 = format: functional, cell-based, Homo sapiens; conditions: Homo sapiens, NCI-H28;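 also: growth inhibition of human NCI-H28 cells, read out as cell viability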
# Description: SANGER: Inhibition of human NCI-H28 cell growth in a cell viability assay.
# SNU-C2B = format: functional, cell-based, Homo sapiens; conditions: Homo sapiens, SNU-C2B;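 also: cell viability readout used to measure compound-driven suppression of SNU-C2B cell proliferation, IC50 marking half-maximal growth inhibition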
# Description: SANGER: Inhibition of human SNU-C2B cell growth in a cell viability assay.
# HSC-2 = format: functional, cell-based, Homo sapiens; conditions: Homo sapiens, HSC-2;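 also: growth inhibition of human HSC-2 cells, read out by a cell viability assay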
# Description: SANGER: Inhibition of human HSC-2 cell growth in a cell viability assay.
# COLO-678 = format: functional, cell-based, Homo sapiens; conditions: Homo sapiens, COLO-678
# Description: SANGER: Inhibition of human COLO-678 cell growth in a cell viability assay.
# CGTH-W-1 = format: functional, cell-based, Homo sapiens; conditions: Homo sapiens, CGTH-W-1;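 also: growth inhibition of human CGTH-W-1 cells measured by cell viability assay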
# Description: SANGER: Inhibition of human CGTH-W-1 cell growth in a cell viability assay.
# C2BBe1 = format: functional, cell-based, Homo sapiens; conditions: Homo sapiens, C2BBe1;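 also: growth inhibition of C2BBe1 cells, read out through a viability assay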
# Description: SANGER: Inhibition of human C2BBe1 cell growth in a cell viability assay.
# KNS-42 = format: functional, cell-based, Homo sapiens; conditions: Homo sapiens, KNS-42;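 also: growth inhibition of KNS-42 cells, read out with a cell viability assay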
# Description: SANGER: Inhibition of human KNS-42 cell growth in a cell viability assay.
# LU-99A = format: functional, cell-based, Homo sapiens; conditions: Homo sapiens, LU-99A;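 also: growth inhibition of LU-99A cells, read out with a cell viability assay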
# Description: SANGER: Inhibition of human LU-99A cell growth in a cell viability assay.
# CTB-1 = format: functional, cell-based; conditions: Homo sapiens
# Description: SANGER: Inhibition of human CTB-1 cell growth in a cell viability assay.
# YKG-1 = format: functional, cell-based, Homo sapiens; conditions: Homo sapiens, YKG-1;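 also: cell growth inhibition, read out with a viability assay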
# Description: SANGER: Inhibition of human YKG-1 cell growth in a cell viability assay.
# NCI-H2170 = format: functional, cell-based, Homo sapiens; conditions: Homo sapiens, NCI-H2170;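 also: cell viability assay measuring growth inhibition of human NCI-H2170 cancer cells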
# Description: SANGER: Inhibition of human NCI-H2170 cell growth in a cell viability assay.
# SHP77 = format: functional, cell-based, Homo sapiens, SHP-77; conditions: Homo sapiens, SHP77;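 also: growth inhibition of human SHP-77 cells measured by a cell viability assay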
# Description: SANGER: Inhibition of human SHP-77 cell growth in a cell viability assay.
compound,measurement,setting,value
CN(Cc1cnc2nc(N)nc(N)c2n1)c1ccc(C(=O)N[C@@H](CCC(=O)O)C(=O)O)cc1 [METHOTREXATE],IC50,BB30-HNC,94.3 nM
same,IC50,COLO-680N,> 200 nM
same,IC50,A204,> 200 nM
same,IC50,DJM-1,> 200 nM
same,IC50,SK-PN-DW,> 200 nM
same,IC50,J82,> 200 nM
same,IC50,BPH-1,> 200 nM
same,IC50,NCI-H1623,> 200 nM
same,IC50,HT-29,153 nM
same,IC50,Calu-6,> 200 nM
same,IC50,RPMI-8866,20 nM
same,IC50,LN-405,> 200 nM
same,IC50,GAK,> 200 nM
same,IC50,NCI-H2122,151 nM
same,IC50,TE-9,> 200 nM
same,IC50,LAMA-84,12.4 nM
same,IC50,769-P,45.3 nM
same,IC50,BV-173,6.35 nM
same,IC50,GT3TKB,> 200 nM
same,IC50,TK-10,> 200 nM
same,IC50,VM-CUB-1,> 200 nM
same,IC50,SK-MEL-28,> 200 nM
same,IC50,SAOS-2,> 200 nM
same,IC50,BHT-101,> 200 nM
same,IC50,D-502MG,> 200 nM
same,IC50,PANC-03-27,> 200 nM
same,IC50,COLO-792,> 200 nM
same,IC50,PC-14,> 200 nM
same,IC50,HD-MY-Z,> 200 nM
same,IC50,NB13,> 200 nM
same,IC50,MHH-ES-1,107 nM
same,IC50,LAN-6,> 200 nM
same,IC50,CP50-MEL-B,> 200 nM
same,IC50,CAL-12T,> 200 nM
same,IC50,LXF-289 cell line,> 200 nM
same,IC50,KYSE-180,> 200 nM
same,IC50,A-427,> 200 nM
same,IC50,J-RT3-T3-5,19.4 nM
same,IC50,NCI-H28,> 200 nM
same,IC50,SNU-C2B,145 nM
same,IC50,HSC-2,> 200 nM
same,IC50,COLO-678,> 200 nM
same,IC50,CGTH-W-1,31.2 nM
same,IC50,C2BBe1,> 200 nM
same,IC50,KNS-42,> 200 nM
same,IC50,LU-99A,> 200 nM
same,IC50,CTB-1,16.2 nM
same,IC50,YKG-1,> 200 nM
same,IC50,NCI-H2170,> 200 nM
same,IC50,SHP77,> 200 nM
Cn1cc(C2=C(c3ccc(Cl)cc3Cl)C(=O)NC2=O)c2ccccc21 [SB-216763],IC50,BB30-HNC,> 10000 nM
same,IC50,COLO-680N,> 10000 nM
same,IC50,A204,> 10000 nM
same,IC50,DJM-1,> 10000 nM
same,IC50,SK-PN-DW,> 10000 nM
same,IC50,J82,> 10000 nM
same,IC50,BPH-1,> 10000 nM
same,IC50,NCI-H1623,> 10000 nM
same,IC50,HT-29,> 10000 nM
same,IC50,Calu-6,> 10000 nM
same,IC50,RPMI-8866,> 10000 nM
same,IC50,LN-405,> 10000 nM
same,IC50,GAK,> 10000 nM
same,IC50,NCI-H2122,> 10000 nM
same,IC50,TE-9,> 10000 nM
same,IC50,LAMA-84,> 10000 nM
same,IC50,769-P,> 10000 nM
same,IC50,BV-173,> 10000 nM
same,IC50,GT3TKB,> 10000 nM
same,IC50,TK-10,> 10000 nM
same,IC50,VM-CUB-1,> 10000 nM
same,IC50,SK-MEL-28,> 10000 nM
same,IC50,SAOS-2,> 10000 nM
same,IC50,BHT-101,> 10000 nM
same,IC50,D-502MG,> 10000 nM
same,IC50,PANC-03-27,> 10000 nM
same,IC50,COLO-792,> 10000 nM
same,IC50,PC-14,> 10000 nM
same,IC50,HD-MY-Z,> 10000 nM
same,IC50,NB13,> 10000 nM
same,IC50,MHH-ES-1,> 10000 nM
same,IC50,LAN-6,> 10000 nM
same,IC50,CP50-MEL-B,> 10000 nM
same,IC50,CAL-12T,> 10000 nM
same,IC50,LXF-289 cell line,> 10000 nM
same,IC50,KYSE-180,> 10000 nM
same,IC50,A-427,> 10000 nM
same,IC50,J-RT3-T3-5,> 10000 nM
same,IC50,NCI-H28,> 10000 nM
same,IC50,SNU-C2B,> 10000 nM
same,IC50,HSC-2,> 10000 nM
same,IC50,COLO-678,> 10000 nM
same,IC50,CGTH-W-1,> 10000 nM
same,IC50,C2BBe1,> 10000 nM
same,IC50,KNS-42,> 10000 nM
same,IC50,LU-99A,> 10000 nM
same,IC50,CTB-1,> 10000 nM
same,IC50,YKG-1,> 10000 nM
same,IC50,NCI-H2170,> 10000 nM
same,IC50,SHP77,> 10000 nM
